Converted amounts (≈) assume the structure as drawn. “And” between values parts separate entries of the source, which are not always exact repeats. Identical values can stand only once. Like-named read-outs stand apart in the source and are kept apart here.

Assay [1] deals with M. tuberculosis H37Rv. Format: cell-based.
Assay [2] relates to INH-R1 (derived from H37Rv, katG mutant Y155*). The format is cell-based, M. tuberculosis.
For assay [3], the system named is RIF-R1 (derived from H37Rv, rpoB mutant S522L). The format is cell-based, M. tuberculosis.
Assay [4] has as its system FQ-R1 (fluoroquinolone-resistant strain derived from H37Rv, gyrA mutant D94N). The format is cell-based, M. tuberculosis.

Regarding `COc1nc2ccc(Br)cc2cc1[C@@H](c1ccccc1)[C@@](O)(CCN(C)C)c1cccc2ccccc12` [BDQ, bedaquiline, reference compound], in assay [1], the Frequencies of resistance is 5.5 × 10^−9 and 3.4 × 10^−7.
Consider `CCCN1CC2C(CC[C@@]3(C)C2CC[C@@H]3C(=O)Nc2cc(C(C)(C)C)ccc2C(C)(C)C)[C@@]2(C)CCC(=O)C=C12` (some centres unmarked) [Compound 114], for which the Frequencies of resistance in assay [1] (114 5 × MIC with BDQ 5 × MIC) is recorded as 2 × 10^−7; in assay [1] (114 5 × MIC, BDQ none), 3.6 × 10^−6; in assay [1] (114 10 × MIC with BDQ 10 × MIC) it was 7.8 × 10^−8; in assay [1] (114 10 × MIC, BDQ none), 1.1 × 10^−7.
With `NNC(=O)c1ccncc1` [INH, isoniazid], the “MIC INH-R1” value in assay [2] was more than 200 µM. Moreover, the “MIC RIF-R1” value in assay [3] turned out to be 0.20 µM (≈ 0.0274 µg/mL). The “MIC FQ-R1” value in assay [4] turned out to be 0.29 µM (≈ 0.0398 µg/mL).

Source of the values: patent publication US11072633B2 (priority 2016, dated 2021).
